Calls of active or inactive are those of the source. The rule behind the calls is not given here.
Columns and labels:
RAW264.7 [1] = test: Antiinflammatory activity in LPS-stimulated mouse RAW264.7 cells assessed as inhibition of COX2 protein expression at 10 to 100 uM pretreated 30 mins before LPS administration measured after 24 hrs by Western blot analysis; assay type: functional, cell-based
RAW264.7 [2] = test: Antiinflammatory activity in LPS-stimulated mouse RAW264.7 cells assessed as inhibition of beta-gal-tagged COX2 promoter activity pretreated 30 mins before LPS administration measured after 24 hrs by luciferase reporter gene assay relative to control; assay type: functional, cell-based

SMILES | inhibition (RAW264.7 [1]) | IC50 (RAW264.7 [2]) | inhibition (RAW264.7 [2])
C=C1C(=O)[C@@]23[C@@H]4CC5=C(C(=O)CC5(C)C)[C@@](C)(O4)[C@@H]2CC[C@@H]1[C@H]3O [CROTONKINENSIN A] | Active | 7.14 µM | Dose-dependent effect
C=C1C(=O)[C@@]23[C@@H]4C[C@H]5C(=CCC5(C)C)[C@@](C)(O4)[C@@H]2CC[C@@H]1[C@H]3O [CROTONKINENSIN B] | Active | 5.49 µM | Dose-dependent effect

Reference: ChEMBL document CHEMBL1153727, “Crotonkinensins A and B, diterpenoids from the Vietnamese medicinal plant Croton tonkinensis” (J Nat Prod, 2009)
